Data as given in patent US9738634B2, “Heterocyclic amide compound and herbicide” (SYNGENTA PARTICIPATIONS AG, priority 2013, dated 2017).

Experiments:
Type in all cases: in vivo
[1] = system: barnyard grass; assay: Test Example 1: weedkilling efficacy, preemergent weed treatment in the submerged state; A: barnyard grass; conditions: treatment dosage 252 g/ha
Method in brief: (§1)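 Visual scores against set criteria were taken 3 weeks after treatment. Compounds, as diluted emulsions at specified g/ha, went onto the water surface of 4 cm-flooded alluvial soil pots on the day weeds were sown and 2.5-leaf rice was transplanted; greenhouse held 25–30 °C.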

[2] = system: bulrush; assay: Test Example 1: weedkilling efficacy, preemergent weed treatment in the submerged state; B: bulrush; conditions: treatment dosage 252 g/ha
Method in brief: as §1

[3] = system: oval-leafed pondweed; assay: Test Example 1: weedkilling efficacy, preemergent weed treatment in the submerged state; C: oval-leafed pondweed; conditions: treatment dosage 252 g/ha
Method in brief: as §1

[4] = system: transplanted rice; assay: Test Example 1: preemergent weed treatment in the submerged state, effect on crop; a: transplanted rice; conditions: treatment dosage 252 g/ha
Method in brief: as §1

[5] = system: barnyard grass; assay: Test Example 2: weedkilling efficacy, growth period weed treatment in the submerged state; A: barnyard grass; conditions: treatment dosage 252 g/ha
Method in brief: (§2)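 Barnyard grass, bulrush and oval-leafed pondweed sown in alluvial soil under 4 cm flooding, greenhouse 25 to 30° C. At 1-2 leaf stage, water-diluted emulsion applied to the water surface at stated g/ha dosages; effects scored 3 weeks later.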

[6] = system: bulrush; assay: Test Example 2: weedkilling efficacy, growth period weed treatment in the submerged state; B: bulrush; conditions: treatment dosage 252 g/ha
Method in brief: as §2

[7] = system: oval-leafed pondweed; assay: Test Example 2: weedkilling efficacy, growth period weed treatment in the submerged state; C: oval-leafed pondweed; conditions: treatment dosage 252 g/ha
Method in brief: as §2

[8] = system: crabgrass; assay: Test Example 3: weedkilling efficacy through soil treatment; D: crabgrass; conditions: treatment dosage 315 g/ha
Method in brief: (§3)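 Crop and weed responses were judged three weeks after a uniform surface spray of the water-diluted emulsion at the given g/ha rate. Seeds sat beneath about 1.5 cm of sterilized diluvial soil, and boxes stood in a greenhouse at 25 to 30° C.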

[9] = system: green foxtail; assay: Test Example 3: weedkilling efficacy through soil treatment; E: green foxtail; conditions: treatment dosage 315 g/ha
Method in brief: as §3

[10] = system: wild oat; assay: Test Example 3: weedkilling efficacy through soil treatment; G: wild oat; conditions: treatment dosage 315 g/ha
Method in brief: as §3

[11] = system: black-grass; assay: Test Example 3: weedkilling efficacy through soil treatment; H: black-grass; conditions: treatment dosage 315 g/ha
Method in brief: as §3

[12] = system: Italian ryegrass; assay: Test Example 3: weedkilling efficacy through soil treatment; I: Italian ryegrass; conditions: treatment dosage 315 g/ha
Method in brief: as §3

[13] = system: Indian mallow; assay: Test Example 3: weedkilling efficacy through soil treatment; K: Indian mallow; conditions: treatment dosage 315 g/ha
Method in brief: as §3

[14] = system: redroot pigweed; assay: Test Example 3: weedkilling efficacy through soil treatment; L: redroot pigweed; conditions: treatment dosage 315 g/ha
Method in brief: as §3

[15] = system: fig-leafed goosefoot; assay: Test Example 3: weedkilling efficacy through soil treatment; M: fig-leafed goosefoot; conditions: treatment dosage 315 g/ha
Method in brief: as §3

[16] = system: chickweed; assay: Test Example 3: weedkilling efficacy through soil treatment; N: chickweed; conditions: treatment dosage 315 g/ha
Method in brief: as §3

[17] = system: birds-eye speedwell; assay: Test Example 3: weedkilling efficacy through soil treatment; p: birds-eye speedwell; conditions: treatment dosage 315 g/ha
Method in brief: as §3

[18] = system: directly sown rice; assay: Test Example 3: soil treatment, effect on crop; b: directly sown rice; conditions: treatment dosage 315 g/ha
Method in brief: as §3

[19] = system: corn; assay: Test Example 3: soil treatment, effect on crop; c: corn; conditions: treatment dosage 315 g/ha
Method in brief: as §3

[20] = system: soybean; assay: Test Example 3: soil treatment, effect on crop; d: soybean; conditions: treatment dosage 315 g/ha
Method in brief: as §3

[21] = system: wheat; assay: Test Example 3: soil treatment, effect on crop; e: wheat; conditions: treatment dosage 315 g/ha
Method in brief: as §3

[22] = system: beet; assay: Test Example 3: soil treatment, effect on crop; f: beet; conditions: treatment dosage 315 g/ha
Method in brief: as §3

[23] = system: crabgrass; assay: Test Example 4: weedkilling efficacy by foliar treatment; D: crabgrass; conditions: treatment dosage 315 g/ha
Method in brief: (§4)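 Seeds are spot-sown into sterilized diluvial soil and covered with about 1.5 cm of soil. After 14 days' greenhouse growth at 25 to 30° C, plants are sprayed on stems and leaves with diluted emulsion at the stated g/ha rate, then scored at 3 weeks.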

[24] = system: green foxtail; assay: Test Example 4: weedkilling efficacy by foliar treatment; E: green foxtail; conditions: treatment dosage 315 g/ha
Method in brief: as §4

[25] = system: wild oat; assay: Test Example 4: weedkilling efficacy by foliar treatment; G: wild oat; conditions: treatment dosage 315 g/ha
Method: Testing of Weedkilling Efficacy by Foliar Treatment
Sterilized diluvial soil was introduced into 21 cm long, 13 cm wide, 7 cm deep plastic boxes, and seeds of crabgrass, green foxtail, barnyard grass, wild oat, black-grass, Italian ryegrass, common wind-grass, Indian mallow, redroot pigweed, fig-leafed goosefoot, chickweed, catchweed, birds-eye speedwell, corn, soybean, rice, wheat, beet and rapeseed were each spot-sown, and covered with about 1.5 cm of soil, then the plants were grown in a greenhouse at 25 to 30° C.
After they had grown for 14 days, emulsions of compounds of the present invention prepared according to compounding example 2 were diluted with water to give the specified dosages, and applied uniformly onto the stem and leaf parts with a small sprayer. 3 weeks after the pesticide treatment the effect on each type of plant was investigated on the basis of the assessment criteria of test example 1.
A: barnyard grass, B: bulrush, C: oval-leafed pondweed, D: crabgrass, E: green foxtail, F: barnyard grass, G: wild oat, H: black-grass, I: Italian ryegrass, J: common wind-grass, K: Indian mallow, L: redroot pigweed, M: fig-leafed goosefoot, N: chickweed, O: catchweed, p: birds-eye speedwell, a: transplanted rice, b: directly sown rice, c: corn, d: soybean, e: wheat, f: beet, g: rapeseed
Further, pesticide dosage (g/ha) indicates the concentration regulated such that treatment was with only the stated number of grams (g), when calculated per hectare (ha).

[26] = system: black-grass; assay: Test Example 4: weedkilling efficacy by foliar treatment; H: black-grass; conditions: treatment dosage 315 g/ha
Method in brief: as §4

[27] = system: Italian ryegrass; assay: Test Example 4: weedkilling efficacy by foliar treatment; I: Italian ryegrass; conditions: treatment dosage 315 g/ha
Method in brief: as §4

[28] = system: Indian mallow; assay: Test Example 4: weedkilling efficacy by foliar treatment; K: Indian mallow; conditions: treatment dosage 315 g/ha
Method in brief: as §4

[29] = system: redroot pigweed; assay: Test Example 4: weedkilling efficacy by foliar treatment; L: redroot pigweed; conditions: treatment dosage 315 g/ha
Method in brief: as §4

[30] = system: fig-leafed goosefoot; assay: Test Example 4: weedkilling efficacy by foliar treatment; M: fig-leafed goosefoot; conditions: treatment dosage 315 g/ha
Method in brief: as §4

[31] = system: chickweed; assay: Test Example 4: weedkilling efficacy by foliar treatment; N: chickweed; conditions: treatment dosage 315 g/ha
Method in brief: as §4

[32] = system: catchweed; assay: Test Example 4: weedkilling efficacy by foliar treatment; O: catchweed; conditions: treatment dosage 315 g/ha
Method in brief: as §4

[33] = system: directly sown rice; assay: Test Example 4: foliar treatment, effect on crop; b: directly sown rice; conditions: treatment dosage 315 g/ha
Method in brief: as §4

[34] = system: corn; assay: Test Example 4: foliar treatment, effect on crop; c: corn; conditions: treatment dosage 315 g/ha
Method in brief: as §4

[35] = system: soybean; assay: Test Example 4: foliar treatment, effect on crop; d: soybean; conditions: treatment dosage 315 g/ha
Method in brief: as §4

[36] = system: wheat; assay: Test Example 4: foliar treatment, effect on crop; e: wheat; conditions: treatment dosage 315 g/ha
Method in brief: as §4

[37] = system: beet; assay: Test Example 4: foliar treatment, effect on crop; f: beet; conditions: treatment dosage 315 g/ha
Method in brief: as §4

CC1=C(c2ccccc2)C(=O)N(C(C)(C)C(=O)Nc2cccc(F)n2)CO1 [B-2-27]
A (barnyard grass) weedkilling efficacy grade [1]: 5 (weed kill ratio 90% or more, (practically complete withering)) | B (bulrush) weedkilling efficacy grade [2]: 5 (weed kill ratio 90% or more, (practically complete withering)) | C (oval-leafed pondweed) weedkilling efficacy grade [3]: 5 (weed kill ratio 90% or more, (practically complete withering)) | a (transplanted rice) effect on crop grade [4]: 0 (weed kill ratio 5% or less (practically no effect)) | A (barnyard grass) weedkilling efficacy grade [5]: 4 (weed kill ratio 70% or more, less than 90%) | B (bulrush) weedkilling efficacy grade [6]: 5 (weed kill ratio 90% or more, (practically complete withering)) | C (oval-leafed pondweed) weedkilling efficacy grade [7]: 5 (weed kill ratio 90% or more, (practically complete withering)) | D (crabgrass) weedkilling efficacy grade [8]: 5 (weed kill ratio 90% or more, (practically complete withering)) | E (green foxtail) weedkilling efficacy grade [9]: 5 (weed kill ratio 90% or more, (practically complete withering)) | G (wild oat) weedkilling efficacy grade [10]: 5 (weed kill ratio 90% or more, (practically complete withering)) | H (black-grass) weedkilling efficacy grade [11]: 5 (weed kill ratio 90% or more, (practically complete withering)) | I (Italian ryegrass) weedkilling efficacy grade [12]: 5 (weed kill ratio 90% or more, (practically complete withering)) | K (Indian mallow) weedkilling efficacy grade [13]: 5 (weed kill ratio 90% or more, (practically complete withering)) | L (redroot pigweed) weedkilling efficacy grade [14]: 5 (weed kill ratio 90% or more, (practically complete withering)) | M (fig-leafed goosefoot) weedkilling efficacy grade [15]: 5 (weed kill ratio 90% or more, (practically complete withering)) | N (chickweed) weedkilling efficacy grade [16]: 5 (weed kill ratio 90% or more, (practically complete withering)) | P (birds-eye speedwell) weedkilling efficacy grade [17]: 5 (weed kill ratio 90% or more, (practically complete withering)) | b (directly sown rice) effect on crop grade [18]: 5 (weed kill ratio 90% or more, (practically complete withering)) | c (corn) effect on crop grade [19]: 4 (weed kill ratio 70% or more, less than 90%) | d (soybean) effect on crop grade [20]: 5 (weed kill ratio 90% or more, (practically complete withering)) | e (wheat) effect on crop grade [21]: 5 (weed kill ratio 90% or more, (practically complete withering)) | f (beet) effect on crop grade [22]: 4 (weed kill ratio 70% or more, less than 90%) | D (crabgrass) weedkilling efficacy grade [23]: 5 (weed kill ratio 90% or more, (practically complete withering)) | E (green foxtail) weedkilling efficacy grade [24]: 5 (weed kill ratio 90% or more, (practically complete withering)) | G (wild oat) weedkilling efficacy grade [25]: 5 (weed kill ratio 90% or more, (practically complete withering)) | H (black-grass) weedkilling efficacy grade [26]: 5 (weed kill ratio 90% or more, (practically complete withering)) | I (Italian ryegrass) weedkilling efficacy grade [27]: 5 (weed kill ratio 90% or more, (practically complete withering)) | K (Indian mallow) weedkilling efficacy grade [28]: 4 (weed kill ratio 70% or more, less than 90%) | L (redroot pigweed) weedkilling efficacy grade [29]: 4 (weed kill ratio 70% or more, less than 90%) | M (fig-leafed goosefoot) weedkilling efficacy grade [30]: 3 (weed kill ratio 40% or more, less than 70%) | N (chickweed) weedkilling efficacy grade [31]: 4 (weed kill ratio 70% or more, less than 90%) | O (catchweed) weedkilling efficacy grade [32]: 4 (weed kill ratio 70% or more, less than 90%) | b (directly sown rice) effect on crop grade [33]: 5 (weed kill ratio 90% or more, (practically complete withering)) | c (corn) effect on crop grade [34]: 4 (weed kill ratio 70% or more, less than 90%) | d (soybean) effect on crop grade [35]: 4 (weed kill ratio 70% or more, less than 90%) | e (wheat) effect on crop grade [36]: 4 (weed kill ratio 70% or more, less than 90%) | f (beet) effect on crop grade [37]: 4 (weed kill ratio 70% or more, less than 90%)
